According to ChEMBL document CHEMBL1671792, “Conformationally constrained farnesoid X receptor (FXR) agonists: heteroaryl replacements of the naphthalene” (Bioorg Med Chem Lett, 2011):
Converted amounts (≈) assume the structure as drawn. The source made the active and inactive calls. No cut-off for these calls is given here.

How the values were obtained:
[1] = biological target: T1, Bile acid receptor (Homo sapiens) (UniProt Q96RI1); assay: Agonist activity at human FXR LBD assessed as SRC1 peptide recruitment by FRET assay relative to GW 4064; format: functional
T1 sequence (whole entry): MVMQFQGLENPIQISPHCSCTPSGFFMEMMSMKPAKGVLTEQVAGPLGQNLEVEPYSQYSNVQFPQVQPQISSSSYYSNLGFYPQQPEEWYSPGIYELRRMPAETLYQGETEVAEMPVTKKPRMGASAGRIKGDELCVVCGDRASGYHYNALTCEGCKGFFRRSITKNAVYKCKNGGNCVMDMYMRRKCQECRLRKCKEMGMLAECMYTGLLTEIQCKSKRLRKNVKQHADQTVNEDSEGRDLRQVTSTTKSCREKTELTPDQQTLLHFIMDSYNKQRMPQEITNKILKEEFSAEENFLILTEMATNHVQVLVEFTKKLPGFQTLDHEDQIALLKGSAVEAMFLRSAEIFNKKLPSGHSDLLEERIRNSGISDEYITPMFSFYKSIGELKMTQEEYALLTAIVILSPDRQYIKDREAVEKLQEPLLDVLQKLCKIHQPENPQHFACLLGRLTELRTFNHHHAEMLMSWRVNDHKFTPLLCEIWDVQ

[2] = biological target: T2, Bile acid receptor (Homo sapiens, UniProt Q96RI1); assay: Agonist activity at human FXR LBD iexpressed in monkey CV-1 cells assessed as transactivation of luciferase reporter gene expression; format: functional, cell-based
T2 sequence (Q96RI1 whole entry): T1 sequence (whole entry)

[3] = biological target: T1, Bile acid receptor (Homo sapiens); assay: Agonist activity at human FXR LBD iexpressed in monkey CV-1 cells assessed as transactivation of luciferase reporter gene expression relative to GW 4064; format: functional, cell-based; design: concentration or dose not given beside the values
[4] = biological target: T2, Bile acid receptor; assay: Agonist activity at human FXR LBD assessed as SRC1 peptide recruitment by FRET assay; format: functional
[5] = biological target: T1, Bile acid receptor (Homo sapiens); assay: Binding affinity to human FXR by X-ray crystallography
[6] = species on record: Homo sapiens; assay: Selectivity ratio of EC50 for human FXR to EC50 for human RXRalpha
[7] = species on record: Homo sapiens; assay: Selectivity ratio of EC50 for human FXR to EC50 for human LXRbeta
[8] = species on record: Homo sapiens; assay: Selectivity ratio of EC50 for human FXR to EC50 for human RORalpha
[9] = species on record: Homo sapiens; assay: Selectivity ratio of EC50 for human FXR to EC50 for human LXRalpha
[10] = species on record: Homo sapiens; assay: Selectivity ratio of EC50 for human FXR to EC50 for human PPARalpha
[11] = species on record: Homo sapiens; assay: Selectivity ratio of EC50 for human FXR to EC50 for human LRH
[12] = system: Rattus norvegicus; assay: Dose normalized AUC in orally dosed rat; format: ADME, organism-based; conditions: in vivo, po
[13] = species on record: Homo sapiens; assay: Selectivity ratio of EC50 for human FXR to EC50 for human PPARgamma
[14] = system: Cynomolgus monkey; assay: Dose normalized AUC in orally dosed cynomolgus monkey; format: ADME, organism-based, Macaca fascicularis; conditions: in vivo, po
[15] = Solubility of compound in fasted state-simulated intestinal fluid at pH 6.5; format: physicochemical; conditions: simulated gi fluid
[16] = species on record: Homo sapiens; assay: Selectivity ratio of EC50 for human FXR to EC50 for human PXR
[17] = species on record: Homo sapiens; assay: Selectivity ratio of EC50 for human FXR to EC50 for human PPARdelta

Compound | Activity [1] [%] | EC50 [2] [nM] | Activity [3] [%] | EC50 [4] [nM] | further results
CC(C)c1onc(-c2c(Cl)cccc2Cl)c1COc1ccc(-c2ccc3c(C(=O)O)nccc3c2)cc1 | 92 | 190 | 102 | 380 | –
CC(C)c1onc(-c2c(Cl)cccc2Cl)c1COc1ccc(/C=C/c2cccc(C(=O)O)c2)c(Cl)c1 | – | – | – | – | Activity [5]: Active
CC(C)Oc1cc(C(=O)O)nc2ccc(-c3ccc(OCc4c(-c5c(Cl)cccc5Cl)noc4C(C)C)cc3)cc12 | 113 | 14 | 103 | 40 | –
Cc1cc2cc(-c3ccc(OCc4c(-c5c(Cl)cccc5Cl)noc4C(C)C)cc3)ccc2nc1C(=O)O | 107 | 38 | 101 | 140 | –
CCCOc1cc(C(=O)O)nc2ccc(-c3ccc(OCc4c(-c5c(Cl)cccc5Cl)noc4C(C)C)cc3)cc12 | 113 | 22 | 93 | 59 | –
CC(C)c1onc(-c2c(Cl)cccc2Cl)c1COc1ccc(-c2ccc3c(C(=O)O)cccc3c2)cc1 | 134 | – | 104 | – | Ratio EC50 [6]: 100; Ratio EC50 [7]: 100; Ratio EC50 [8]: 100; Ratio EC50 [9]: 100; Ratio EC50 [10]: 100; Ratio EC50 [11]: 100; AUC [12]: 23 ng·kg·h/mg/mL; Ratio EC50 [13]: 100; AUC [14]: 1130 ng·kg·h/mg/mL; Activity [5]: Active; solubility [15]: 1 ng/mL (≈ 1.88 nM); Ratio EC50 [16]: 100; Ratio EC50 [17]: 100
Cc1nc(C(=O)O)nc2ccc(-c3ccc(OCc4c(-c5c(Cl)cccc5Cl)noc4C(C)C)cc3)cc12 | 102 | 1000 | 127 | 140 | –
CCc1cc(C(=O)O)nc2ccc(-c3ccc(OCc4c(-c5c(Cl)cccc5Cl)noc4C(C)C)cc3)cc12 | 106 | 32 | 109 | 75 | –
COc1cc(C(=O)O)nc2ccc(-c3ccc(OCc4c(-c5c(Cl)cccc5Cl)noc4C(C)C)cc3)cc12 | 113 | 17 | 107 | 58 | –
CCOc1cc(C(=O)O)nc2ccc(-c3ccc(OCc4c(-c5c(Cl)cccc5Cl)noc4C(C)C)cc3)cc12 | 99 | 14 | 84 | 52 | –
